{"source": "patent US20090005297A1", "about": "(priority 2004, published 2009)", "origin": "cited, not measured here", "settings": "nonspecific PEGylation at amine groups with one or two 5 kDa PEG", "data": [{"substance": "variant aprotinin (T11 D, K15R, R17L, I18H, I19L, V34Y, R39L, K46E): variant aprotinin nonspecifically PEGylated at amine groups with one or two 5 kDa PEG (Stassen 1995)", "values": [{"measurement": "in vivo effectiveness", "value": "not improved"}]}]}
